Test results published in PMC9698773, “Design, Synthesis, Molecular Modeling, and Anticancer Evaluation of New VEGFR-2 Inhibitors Based on the Indolin-2-One Scaffold” (Pharmaceuticals, 2022).

Tested on: HepG2 cell line
Test: MTT cytotoxicity assay, HepG2
Assay type: cell-based, human
Settings: for IC50: mean ± SD of three experiments
Protocol: The cytotoxic activities against breast MCF-7 and liver HepG2 cancer cell lines for all the synthesized compounds 3a,b–17a,b were evaluated by MTT-based cytotoxicity assay. Sunitinib was selected as a reference standard in this study, and the results are presented as IC50 in Table 1.
The anticancer activities of the target compounds 3a,b–17a,b were quantitatively assessed using the MTT protocol against the MCF-7 and HepG2 cell lines, as described in the Supplementary Materials. […]
4.2. Biological investigation
4.2.1. In vitro cytotoxic activity assay
Citation: Abdelgawad, M.A.; Cell Line cells were obtained from the American Type Culture Collection. The cells Hayallah A.M.; Bukhari S.N.A.; were cultured using DMEM (Invitrogen/Life Technologies) supplemented with 10% FBS Musa A.; Elmowafy M.; (Hyclone,), 10 ug/ml of insulin (Sigma), and 1% penicillin‐streptomycin. All of the other Abdel‐Rahman, H.M.; chemicals and reagents were from Sigma or Invitrogen. Plate cells (cells density 1.2 – 1.8 Abd El‐Gaber, M.K. Design, × 10,000 cells/well) in a volume of 100μl complete growth medium + 100 μl of the tested Synthesis, Molecular Modeling, and compound per well in a 96‐well plate for 24 hours before the MTT assay. The tested com‐ Anticancer Evaluation of New pounds were dissolved in DMSO just before the test.
VEGFR‐2 Inhibitors Based on the Indolin‐2‐One Scaffold. 4.2.1.1. Cell culture protocol
Pharmaceuticals 2022, 15, x. The culture medium was removed to a centrifuge tube. The cell layer was briefly https://doi.org/10.3390/xxxxx rinsed with 5 mL of 0.25% (w/v) Trypsin and 3 mL of 0.53 mM EDTA solution to remove Academic Editor(s): Mary J. Meegan all traces of serum which contains Trypsin inhibitor. Next, 2.0 to 3.0 ml of Trypsin EDTA Received: 18 October 2022 solution was added to the flask and cells were observed under an inverted microscope Accepted: 9 November 2022 until the cell layer was dispersed (usually within 5 to 15 minutes). Then, 6.0 to 8.0 mL of Published: 14 November 2022 complete growth medium was added and cells aspirated by gently pipetting. The cell suspension was transferred to the centrifuge tube with the medium and cells from step 1, Publisher’s Note: MDPI stays neu‐and centrifuged at approximately 125 xg for 5 to 10 minutes. The supernatant was dis‐ tral with regard to jurisdictional carded and the cell pellet was suspended in fresh growth medium. Appropriate aliquots claims in published maps and institu‐ of the cell suspension were added to new culture vessels and incubated at 37°C for 24 hrs. tional affiliations. After treatment of cells with the serial concentrations of the compound to be tested, incu‐ bation was carried out for 48 h at 37 °C. The plates were examined under an inverted mi‐ croscope and proceeded for the MTT assay […]
Submitted for possible open access 4.2.1.2. […]
HepG‐2) were used in this test. At first, the cell lines were cultured in RPMI‐1640 medium Pharmaceuticals 2022, 15, x. https://doi.org/10.3390/xxxxx. www.mdpi.com/journal/pharmaceuticals […]
Pharmaceuticals 2022, 15, x FOR PEER REVIEW 2 of 22 with 10% fetal bovine serum. Antibiotics (100 units/ml penicillin and100 μg/ml strepto‐ mycin) were added at 37 °C in a 5% CO2 incubator. The cell lines were seeded in a 96‐well plate at a density of 1.0 x 10^4 cells / well at 37 °C for 48 h under 5% CO2. After incubation, the cells were treated with different concentrations of the synthesized compounds and incubated for 24 h. After 24 h of drug treatment, 20 μl of MTT solution (5mg/ml) was added and incubated for 4 h. 100 μl of dimethyl sulfoxide (DMSO) was added into each well to dissolve the formed purple formazan. The colored solution was measured and recorded at an absorbance of 570 nm using a plate reader (EXL 800, USA). The relative cell viability was calculated in percentage as (A570 of treated samples/A570 of untreated sam‐ ple) X 100. The half maximal inhibitory concentration (IC50) values were presented using […]

SMILES: O=C1Nc2ccccc2C1=Nc1ccc(C(=O)NNC(=S)Nc2ccccc2)cc1 [Compound 17a, 2-(4-((2-Oxoindolin-3-ylidene)amino)benzoyl)-N-phenylhydrazinecarbothioamide]
- IC50 (Homo sapiens, HepG2, MTT assay): 1130 ± 60 nM
- IC50 (MTT assay): 1130 ± 60 nM
- fold more potent than sunitinib, HepG2 (ratio of IC50 to sunitinib): two-fold
